Assay: Phase one study part 2: multiple dose (28 days) plasma PK of free and total DGLA
Format: in vivo, human
Description: Multiple dose part two of the study comprised two cohorts (Cohorts five and six) of eight subjects each, who were administered multiple doses of study drug in the fasted state for 28 days. Subjects in Cohorts five and six received DS107G at 2000 or 4000 mg, respectively, or matching placebo once daily for 28 days. Cohort six was started after Cohort five's safety data were evaluated by the SMC. No interim analysis was planned. […]
In Part two of the study (Cohorts five and six), subjects were administered study drug (500-mg DS107G capsules or matching placebo capsules) once daily in the fasted state for 28 days. Subjects in Cohort five received study drug first and, if they tolerated the 2000-mg daily dose for the first 14 days, subjects in Cohort six were started on the 4000-mg daily dose for 28 days.
PK parameter was computed after correcting the dosed DGLA concentrations with baseline DGLA concentrations.

[1] = 2000 mg once daily, Day 1, 0 to 24 hours
[2] = 2000 mg once daily, Day 28, 0 to 24 hours
[3] = 2000 mg once daily, Day 28, 0 to 168 hours
[4] = 2000 mg once daily, Day 28: 0 to 24 hours
[5] = 4000 mg once daily, Day 1, 0 to 24 hours

SMILES: CCCCC/C=C\C/C=C\C/C=C\CCCCCCC(=O)O [DS107G, Dihomo gamma linolenic acid]
- free DGLA mean accumulation ratio (AR), AUC (2000 mg): ~3.3
- free DGLA mean accumulation ratio (AR), Cmax (2000 mg): ~2.8
- AUC0-24, mean, free DGLA, baseline-corrected plasma [1]: 4548.7 ng·h/mL
- AUC0-24/Dose, mean, free DGLA, baseline-corrected plasma [1]: 2.27 h/kL
- AUC0-24/Dose, mean, total DGLA, baseline-corrected plasma [1]: 149.09 h/kL
- AUC0-inf, mean, free DGLA, baseline-corrected plasma [1]: 5955.6 ng·h/mL
- AUC0-inf/Dose, mean, free DGLA, baseline-corrected plasma [1]: 2.98 h/kL
- AUC0-inf/Dose, mean, total DGLA, baseline-corrected plasma [1]: 2080.61 h/kL
- CL/F, mean, free DGLA, baseline-corrected plasma [1]: 0.5448 kL/h
- Cmax, mean, free DGLA, baseline-corrected plasma [1]: 850.5 ng/mL
- Cmax/Dose, mean, free DGLA, baseline-corrected plasma [1]: 0.425 kL⁻¹
- Cmax/Dose, mean, total DGLA, baseline-corrected plasma [1]: 9.050 kL⁻¹
- λz, mean, free DGLA, baseline-corrected plasma [1]: 0.2133 h⁻¹
- λz, mean, total DGLA, baseline-corrected plasma [1]: 0.221 h⁻¹
- AUC0-24, mean, free DGLA, baseline-corrected plasma [2]: 9248.1 ng·h/mL
- AUC0-24/Dose, mean, free DGLA, baseline-corrected plasma [2]: 4.62 h/kL
- AUC0-24/Dose, mean, total DGLA, baseline-corrected plasma [2]: 675.69 h/kL
- AUC0-inf, mean, free DGLA, baseline-corrected plasma [2]: 10389.0 ng·h/mL
- AUC0-inf/Dose, mean, free DGLA, baseline-corrected plasma [2]: 5.19 h/kL
- AUC0-inf/Dose, mean, total DGLA, baseline-corrected plasma [2]: 2579.58 h/kL
- CL/F, mean, free DGLA, baseline-corrected plasma [2]: 0.2002 kL/h
- Cmax, mean, free DGLA, baseline-corrected plasma [2]: 1999.3 ng/mL
- Cmax/Dose, mean, free DGLA, baseline-corrected plasma [2]: 1.000 kL⁻¹
- Cmax/Dose, mean, total DGLA, baseline-corrected plasma [2]: 37.792 kL⁻¹
- λz, mean, free DGLA, baseline-corrected plasma [2]: 0.1282 h⁻¹
- λz, mean, total DGLA, baseline-corrected plasma [2]: 0.0199 h⁻¹
- AUC0-24, mean, free DGLA, baseline-corrected plasma [3]: 9248.1 ng·h/mL
- AUC0-24/Dose, mean, free DGLA, baseline-corrected plasma [3]: 4.62 h/kL
- AUC0-24/Dose, mean, total DGLA, baseline-corrected plasma [3]: 675.69 h/kL
- AUC0-inf, mean, free DGLA, baseline-corrected plasma [3]: 43024.8 ng·h/mL
- AUC0-inf/Dose, mean, free DGLA, baseline-corrected plasma [3]: 21.51 h/kL
- AUC0-inf/Dose, mean, total DGLA, baseline-corrected plasma [3]: 2513.91 h/kL
- CL/F, mean, free DGLA, baseline-corrected plasma [3]: 0.0949 kL/h
- Cmax, mean, free DGLA, baseline-corrected plasma [3]: 1999.3 ng/mL
- Cmax/Dose, mean, free DGLA, baseline-corrected plasma [3]: 1.000 kL⁻¹
- Cmax/Dose, mean, total DGLA, baseline-corrected plasma [3]: 37.792 kL⁻¹
- λz, mean, free DGLA, baseline-corrected plasma [3]: 0.0250 h⁻¹
- λz, mean, total DGLA, baseline-corrected plasma [3]: 0.0169 h⁻¹
- % PTF (peak trough fluctuation), mean, free DGLA, steady-state baseline-corrected plasma [4]: 492.54%
- % PTF (peak trough fluctuation), mean, total DGLA, steady-state baseline-corrected plasma [4]: 62.50%
- AR(AUC) accumulation ratio, mean, free DGLA, steady-state baseline-corrected plasma [4]: 3.340
- AR(AUC) accumulation ratio, mean, total DGLA, steady-state baseline-corrected plasma [4]: 7.991
- AR(Cmax) accumulation ratio, mean, free DGLA, steady-state baseline-corrected plasma [4]: 2.796
- AR(Cmax) accumulation ratio, mean, total DGLA, steady-state baseline-corrected plasma [4]: 5.156
- CLss/F, mean, free DGLA, steady-state baseline-corrected plasma [4]: 0.2295 kL/h
- CLss/F, mean, total DGLA, steady-state baseline-corrected plasma [4]: 0.0016 kL/h
- Cavg, mean, free DGLA, steady-state baseline-corrected plasma [4]: 385.3 ng/mL
- Cavg, mean, total DGLA, steady-state baseline-corrected plasma [4]: 56307.2 ng/mL
- Cmin, mean, free DGLA, steady-state baseline-corrected plasma [4]: 100.8 ng/mL
- Cmin, mean, total DGLA, steady-state baseline-corrected plasma [4]: 37933.3 ng/mL
- Vzss/F, mean, free DGLA, steady-state baseline-corrected plasma [4]: 5.3096 kL
- Vzss/F, mean, total DGLA, steady-state baseline-corrected plasma [4]: 0.0980 kL
- tmin, median, free DGLA, steady-state baseline-corrected plasma [4]: 8.00 h
- tmin, median, total DGLA, steady-state baseline-corrected plasma [4]: 1.50 h
- free DGLA mean accumulation ratio (AR), AUC (4000 mg): ~1.6
- free DGLA mean accumulation ratio (AR), Cmax (4000 mg): ~1.4
- AUC0-24, mean, free DGLA, baseline-corrected plasma [5]: 11441.4 ng·h/mL
- AUC0-24/Dose, mean, free DGLA, baseline-corrected plasma [5]: 2.86 h/kL
- AUC0-24/Dose, mean, total DGLA, baseline-corrected plasma [5]: 114.05 h/kL
- AUC0-inf, mean, free DGLA, baseline-corrected plasma [5]: 13900.3 ng·h/mL
- AUC0-inf/Dose, mean, free DGLA, baseline-corrected plasma [5]: 3.48 h/kL
- CL/F, mean, free DGLA, baseline-corrected plasma [5]: 0.3325 kL/h
- Cmax, mean, free DGLA, baseline-corrected plasma [5]: 2641.5 ng/mL
- Cmax/Dose, mean, free DGLA, baseline-corrected plasma [5]: 0.660 kL⁻¹
- Cmax/Dose, mean, total DGLA, baseline-corrected plasma [5]: 6.967 kL⁻¹
- λz, mean, free DGLA, baseline-corrected plasma [5]: 0.1504 h⁻¹

Source: US20180333382A1, “PHARMACEUTICAL COMPOSITIONS COMPRISING DGLA AND USE OF SAME” (DS Biopharma Limited, priority 2017, published 2018)
